According to patent publication US12215081B2, “Pharmaceutical intermediate” (ZAKLADY FARM[…] S.A., priority 2019, dated 2025):

Assay: Stability of 4-(4-fluorobenzylamino)-1-methylpiperidine (oil) and its trihydrate stored in a sealed container, purity and impurities over time
Format: physicochemical
Details: for decrease in purity: crude oil, sealed container
Description: The stability of the crude 4-(4-fluorobenzylamino)-1-methylpiperidine oil obtained by the process described in Example 1 was also assessed.
The crude 4-(4-fluorobenzylamino)-1-methylpiperidine oil decreased in purity by 0.5% after 1 month and 0.7% after 2.5 months.

[1] = Batch 3, sealed container, 0 months
[2] = Batch 3, sealed container, 1 month
[3] = Batch 4, sealed container, 0 months
[4] = Batch 4, sealed container, 2.5 months

## CN1CCC(NCc2ccc(F)cc2)CC1 [4-(4-fluorobenzylamino)-1-methylpiperidine trihydrate]
Stored under the same conditions as the amine oil (sealed container)
  stability on storage (decomposition): stable, and no decomposition was observed

## CN1CCC(NCc2ccc(F)cc2)CC1 [4-(4-fluorobenzylamino)-1-methylpiperidine]
[1]
  Amine purity: Amine - 98.17% pure
  impurity I (% impurity): I/(0.21) %
  impurity II (% impurity): II/(0.12) %
  impurity III (% impurity): III/(0.27) %
[2]
  Amine purity: Amine - 97.66% pure
  impurity I (% impurity): I/(0.26) %
  impurity II (% impurity): II/(0.21) %
  impurity III (% impurity): III/(0.59) %
[3]
  Amine purity: Amine - 97.82% pure
  impurity I (% impurity): I/(0.23) %
  impurity II (% impurity): II/(0.12) %
  impurity III (% impurity): III/(0.68) %
[4]
  Amine purity: Amine - 97.09% pure
  impurity I (% impurity): I/(0.18) %
  impurity II (% impurity): II/(0.14) %
  impurity III (% impurity): III/(1.15) %
After 1 month
  decrease in purity: 0.5%
After 2.5 months
  decrease in purity: 0.7%
